Measured values as given in US8048879B2, “Substituted 4,5,6,7-tetrahydro-isoxazolo[4,5-c]pyridine compounds and use thereof for producing medicaments” (Gruenenthal GmbH, priority 2005, dated 2011).

System: batrachotoxin (BTX) binding site of the sodium channel
Test: Affinity for the batrachotoxin (BTX) binding site of the sodium channel, [3H]-batrachotoxinin A20 α-benzoate, rat cerebrocortex synaptosomes
Conditions: test concentration not given

Point of comparison: `O=C(NCCN1CCCC1)c1noc2c1CN(C(=O)COc1cccc(Cl)c1)CC2` [Example 94, 5-[2-(3-chlorophenoxy)-acetyl]-4,5,6,7-tetrahydro-isoxazolo[4,5-c]pyridine-3-carboxylic acid (2-pyrrolidin-1-yl-ethyl) amide], “BTX inhibition (rat) % inhibition” value 60%. Against it:
- Cc1cc(C(=O)N2CCc3onc(C(=O)NCCN4CCOCC4)c3C2)ccc1Br [Example 90, 5-(4-bromo-3-methyl-benzoyl)-4,5,6,7-tetrahydro-isoxazolo[4,5-c]pyridine-3-carboxylic acid (2-morpholin-4-yl-ethyl) amide] — lower, 42%
- Cc1ccc(S(=O)(=O)N2CCc3onc(C(=O)NC4CCN(Cc5c(Cl)cccc5Cl)C4)c3C2)cc1 (centres unmarked) [Example 91, 5-(toluene-4-sulfonyl)-4,5,6,7-tetrahydro-isoxazolo[4,5-c]pyridine-3-carboxylic acid [1-(2,6-dichloro-benzyl)-pyrrolidin-3-yl] amide] — higher, 61%
- O=C(c1noc2c1CN(S(=O)(=O)c1ccccc1)CC2)N1CCN(CC=Cc2ccccc2)CC1 [Example 97, (5-benzenesulfonyl-4,5,6,7-tetrahydro-isoxazolo[4,5-c]pyridin-3-yl)-[4-(3-phenyl-allyl)-piperazin-1-yl]-methanone] — higher, 70%
- Cc1cc(C(=O)N2CCc3onc(C(=O)NCCN4CCCC4)c3C2)ccc1Br [Example 102, 5-(4-bromo-3-methyl-benzoyl)-4,5,6,7-tetrahydro-isoxazolo[4,5-c]pyridine-3-carboxylic acid (2-pyrrolidin-1-yl-ethyl) amide] — higher, 73%
- O=C(NC1CCN(Cc2ccc(C(F)(F)F)cc2)C1)c1noc2c1CN(S(=O)(=O)c1ccccc1)CC2 (centres unmarked) [Example 103, 5-benzenesulfonyl-4,5,6,7-tetrahydro-isoxazolo[4,5-c]pyridine-3-carboxylic acid [1-(4-trifluoromethyl-benzyl)-pyrrolidin-3-yl] amide] — higher, 92%
- CC(CNC(=O)c1noc2c1CN(S(=O)(=O)c1cccs1)CC2)c1ccccc1 (centres unmarked) [Example 104, 5-(thiophene-2-sulfonyl)-4,5,6,7-tetrahydro-isoxazolo[4,5-c]pyridine-3-carboxylic acid (2-phenyl-propyl) amide] — lower, 50%
- COc1ccc(OCCNC(=O)c2noc3c2CN(S(=O)(=O)c2ccc(C)cc2)CC3)cc1 [Example 109, 5-(toluene-4-sulfonyl)-4,5,6,7-tetrahydro-isoxazolo[4,5-c]pyridine-3-carboxylic acid [2-(4-methoxy-phenoxy)-ethyl] amide] — lower, 56%
- O=C(c1noc2c1CN(S(=O)(=O)c1cc(Cl)ccc1Cl)CC2)N1CCN(c2ccccc2Cl)CC1 [Example 110, [4-(2-chlorophenyl)-piperazin-1-yl]-[5-(2,5-dichloro-benzenesulfonyl)-4,5,6,7-tetrahydro-isoxazolo[4,5-c]pyridin-3-yl]-methanone] — lower, 55%
- O=C(NCc1ccc(C(F)(F)F)c(F)c1)c1noc2c1CN(S(=O)(=O)c1ccccc1)CC2 [Example 113, 5-benzenesulfonyl-4,5,6,7-tetrahydro-isoxazolo[4,5-c]pyridine-3-carboxylic acid 3-fluoro-4-trifluoromethyl-benzyl amide] — the same, 60%
- CCCCOc1ccc(S(=O)(=O)N2CCc3onc(C(=O)NCC(C)C)c3C2)cc1 [Example 114, 5-(4-butoxy-benzenesulfonyl)-4,5,6,7-tetrahydro-isoxazolo[4,5-c]pyridine-3-carboxylic acid isobutyl amide] — lower, 58%
- O=C(NCCN1CCCC1)c1noc2c1CN(S(=O)(=O)c1cccc(Cl)c1)CC2 [Example 118, 5-(3-chloro-benzenesulfonyl)-4,5,6,7-tetrahydro-isoxazolo[4,5-c]pyridine-3-carboxylic acid (2-pyrrolidin-1-yl-ethyl) amide] — higher, 76%
- CC(C)CNC(=O)c1noc2c1CN(C(=O)C(NC(=O)OCc1ccccc1)c1ccccc1)CC2 (centres unmarked) [Example 126, [2-(3-isobutylcarbamoyl-6,7-dihydro-4H-isoxazolo[4,5-c]pyridin-5-yl)-2-oxo-1-phenyl-ethyl]-carbamic acid benzyl ester] — higher, 88%
- COc1ccc(CNC(=S)N2CCc3onc(C(=O)NC4CCCC4)c3C2)cc1 [Example 127, 5-(4-methoxy-benzylthiocarbamoyl)-4,5,6,7-tetrahydro-isoxazolo[4,5-c]pyridine-3-carboxylic acid cyclopentyl amide] — higher, 74%
- O=C(NC(=S)N1CCc2onc(C(=O)NCCN3CCCC3)c2C1)c1ccccc1 [Example 128, 5-benzoylaminocarbothioyl-4,5,6,7-tetrahydro-isoxazolo[4,5-c]pyridine-3-carboxylic acid (2-pyrrolidin-1-yl-ethyl) amide] — higher, 74%
- O=C(NCC1CC1)c1noc2c1CN(C(=S)NCc1ccc(Cl)cc1)CC2 [Example 129, 5-(4-chloro-benzylthiocarbamoyl)-4,5,6,7-tetrahydro-isoxazolo[4,5-c]pyridine-3-carboxylic acid cyclopropylmethyl amide] — lower, 53%
- COCCNC(=S)N1CCc2onc(C(=O)NCCc3ccccc3)c2C1 [Example 130, 5-(2-methoxy-ethylthiocarbamoyl)-4,5,6,7-tetrahydro-isoxazolo[4,5-c]pyridine-3-carboxylic acid phenethyl amide] — higher, 68%
- O=C(NCCc1ccccc1)c1noc2c1CN(C(=S)Nc1c(F)c(F)c(F)c(F)c1F)CC2 [Example 131, 5-pentafluorophenylthiocarbamoyl-4,5,6,7-tetrahydro-isoxazolo[4,5-c]pyridine-3-carboxylic acid phenethyl amide] — lower, 58%
- CC(NC(=S)N1CCc2onc(C(=O)NCCc3ccccc3)c2C1)c1ccccc1 (centres unmarked) [Example 132, 5-(1-phenyl-ethylthiocarbamoyl)-4,5,6,7-tetrahydro-isoxazolo[4,5-c]pyridine-3-carboxylic acid phenethyl amide] — higher, 90%
- CCOC(=O)CCNC(=O)c1noc2c1CN(C(=S)NCC1CCCCC1)CC2 [Example 134, 3-{[5-(cyclohexylmethyl-thiocarbamoyl)-4,5,6,7-tetrahydro-isoxazolo[4,5-c]pyridine-3-carbonyl]-amino}-propionic acid ethyl ester] — lower, 55%
- O=C(Nc1ccccc1)c1noc2c1CN(Cc1ccc3ccccc3c1Br)CC2 [Example 135, 5-(1-bromo-naphthalen-2-ylmethyl)-4,5,6,7-tetrahydro-isoxazolo[4,5-c]pyridine-3-carboxylic acid phenyl amide] — higher, 61%
- O=C(c1noc2c1CN(S(=O)(=O)c1ccc(Cl)c(Cl)c1)CC2)N1CCN(c2nccs2)CC1 [Example 140, (5-(3,4-dichlorophenylsulfonyl)-4,5,6,7-tetrahydroisoxazolo[4,5-c]pyridin-3-yl)(4-(thiazol-2-yl)piperazin-1-yl)methanone] — lower, 55%
- Cc1cc(C)c(S(=O)(=O)N2CCc3onc(C(=O)N4CCN(c5nccs5)CC4)c3C2)c(C)c1 [Example 141, (5-(mesitylsulfonyl)-4,5,6,7-tetrahydroisoxazolo[4,5-c]pyridin-3-yl)(4-(thiazol-2-yl)piperazin-1-yl)methanone] — higher, 67%
